Values of other authors in PMC2923200, “Identification of a Cardiac Specific Protein Transduction Domain by In Vivo Biopanning Using a M13 Phage Peptide Display Library in Mice” (PLoS ONE, 2010).

Conditions: in vitro phage display screening by other investigators
Description: However, it is unclear how the ability of CTP to interact with these cellular components in vitro facilitates transduction of cardiac specific tissue in vivo. We currently are examining whether the transduction process is energy independent as well as whether it involves endocytosis. Also, the s ...

Sequence: APWHLSSQYSRT [CTP]
- affinity for binding to apatite-based, bone-like minerals: high affinity
- affinity for binding to two specific sulfated carbohydrates: high affinity
